Results: patent publication US20130045204A1, “FLUORINATED BISPHENOL ETHER COMPOUNDS AND METHODS FOR THEIR USE” (The University of British Columbia, priority 2011, published 2013)
Entries after “also recorded” stand apart in the source; their conditions may differ.

Columns and labels:
AR [1] = molecular target: T1, AR (Homo sapiens, UniProt P10275); experiment: probasin (PB)-luciferase reporter assay of AR transcriptional activity; type: cell-based
T1 sequence (P10275 1-920 T878A): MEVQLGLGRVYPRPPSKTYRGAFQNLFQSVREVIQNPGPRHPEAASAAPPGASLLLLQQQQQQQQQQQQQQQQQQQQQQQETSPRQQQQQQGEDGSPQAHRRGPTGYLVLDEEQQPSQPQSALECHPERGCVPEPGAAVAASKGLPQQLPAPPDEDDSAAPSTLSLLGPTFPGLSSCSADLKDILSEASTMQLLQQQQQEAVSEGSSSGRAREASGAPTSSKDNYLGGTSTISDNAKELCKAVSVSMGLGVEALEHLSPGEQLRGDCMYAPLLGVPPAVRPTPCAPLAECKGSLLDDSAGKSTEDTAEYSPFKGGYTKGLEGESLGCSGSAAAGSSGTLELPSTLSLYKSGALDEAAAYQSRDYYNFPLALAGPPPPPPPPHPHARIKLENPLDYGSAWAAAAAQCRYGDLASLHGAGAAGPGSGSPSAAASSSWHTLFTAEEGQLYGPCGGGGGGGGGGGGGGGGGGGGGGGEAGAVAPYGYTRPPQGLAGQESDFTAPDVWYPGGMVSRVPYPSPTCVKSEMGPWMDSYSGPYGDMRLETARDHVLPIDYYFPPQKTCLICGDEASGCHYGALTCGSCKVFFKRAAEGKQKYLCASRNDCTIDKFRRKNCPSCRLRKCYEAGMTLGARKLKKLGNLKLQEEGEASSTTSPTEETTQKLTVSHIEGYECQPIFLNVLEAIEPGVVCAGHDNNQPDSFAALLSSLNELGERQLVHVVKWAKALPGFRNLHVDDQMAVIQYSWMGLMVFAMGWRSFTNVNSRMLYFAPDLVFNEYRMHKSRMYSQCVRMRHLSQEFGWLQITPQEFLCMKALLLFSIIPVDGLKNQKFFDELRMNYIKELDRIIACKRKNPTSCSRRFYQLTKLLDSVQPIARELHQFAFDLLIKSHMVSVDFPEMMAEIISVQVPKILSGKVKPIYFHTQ

AR [2] = molecular target: T1, AR; experiment: ARR3-luciferase reporter assay of AR transcriptional activity; type: cell-based
AR [3] = molecular target: T1, AR; experiment: PSA-luciferase reporter assay of AR transcriptional activity; type: cell-based; conditions: for PSA-Luc activity (%) mean ± SD: PSA-luciferase reporter
LNCaP CRPC xenograft = LNCaP CRPC xenograft model, antitumor activity; type: in vivo, mice; conditions: for CRPC tumor growth / antitumor activity (in words): compared to DMSO control or to other comparative compounds, FIGS. 6, 7
[4] = Body weight of animals in LNCaP CRPC xenograft model; type: in vivo, mice; conditions: treated animals; FIG. 9
[5] = molecular target: T2, androgen receptor N-terminal domain (Homo sapiens, UniProt P10275); experiment: Inhibition of androgen receptor N-terminal domain transactivation (AR (1-558)-Gal4 DBD, luciferase); type: cell-based; conditions: LNCaP cells, compound 1 20 μm vs (Ac) 25 μm, 50 ng/ml IL-6; FIG. 2
T2 construct: AR (1-558)-Gal4 DBD; expressed in transfected cells; host or cells: LNCaP
T2 sequence (P10275 1-558): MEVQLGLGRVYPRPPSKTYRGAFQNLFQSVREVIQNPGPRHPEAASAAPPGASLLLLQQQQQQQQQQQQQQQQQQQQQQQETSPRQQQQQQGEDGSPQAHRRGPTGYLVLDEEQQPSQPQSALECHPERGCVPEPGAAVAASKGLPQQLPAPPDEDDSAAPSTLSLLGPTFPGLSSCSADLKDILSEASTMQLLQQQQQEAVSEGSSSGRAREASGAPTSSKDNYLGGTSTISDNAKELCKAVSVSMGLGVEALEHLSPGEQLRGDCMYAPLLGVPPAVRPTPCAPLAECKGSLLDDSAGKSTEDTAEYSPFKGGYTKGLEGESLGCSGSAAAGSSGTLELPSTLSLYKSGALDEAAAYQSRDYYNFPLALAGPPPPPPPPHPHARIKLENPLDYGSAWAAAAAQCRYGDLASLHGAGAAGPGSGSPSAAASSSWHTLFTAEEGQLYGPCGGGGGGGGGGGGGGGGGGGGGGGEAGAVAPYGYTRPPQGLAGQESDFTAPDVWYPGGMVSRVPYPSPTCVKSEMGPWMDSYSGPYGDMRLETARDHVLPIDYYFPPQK
Procedure: Inhibition of androgen receptor N-terminal domain transactivation was determined as follows.

LNCaP cells = experiment: Inhibition of androgen-dependent proliferation, AlamarBlue Proliferation Assay; type: cell-based, human; conditions: 0.1 nM R1881, 3 days; compared to comparative compound (Ac); FIGS. 1A and 1B
Procedure: LNCaP human prostate cancer cells were maintained in phenol red-free RPMI 1640 medium with 0.5% (v/v) fetal bovine serum, while PC3 human prostate cancer cells were cultured in phenol red DMEM medium with 0.5% (v/v) fetal bovine serum at 37° C. […] LNCaP cells were incubated for 72 hours with R1881, while the duration of the experiment was 48 hours for PC3 cells. AlamarBlue reagent was added to the cells prior to incubation and measuring fluorescence at 570 nm.

VCaP xenografts = experiment: Growth inhibition of VCaP xenografts in castrated mice; type: in vivo; conditions: castrated NOD-SCID mice, 50 mg/kg i.v. every other day, seven doses; compared to (Ac); FIGS. 3, 4
Procedure: Growth inhibition of VCaP xenografts in castrated mice was determined as follow. Male NOD-SCID mice bearing subcutaneous VCaP tumors were castrated when tumor volume was ˜100 mm^3. […] The experiment ended two days after the last dose. Change in tumor volume was determined as the change at day 14 compared to the day of 1st injection. DMSO was used as the vehicle control.

| Structure (SMILES) | PB-Luc activity (%) mean ± SD (AR [1]) [%] | ARR3-Luc activity (%) mean ± SD (AR [2]) [%] | PSA-Luc activity (%) mean ± SD (AR [3]) [%] | change in tumor volume at day 14 (in words) (VCaP xenografts) | also measured |
| --- | --- | --- | --- | --- | --- |
| CC(C)(c1ccc(OCC(O)CO)cc1)c1ccc(OCC(O)CCl)cc1 (stereo not shown) [(A)] | 63.96 ± 13.70 | 63.96 ± 14.57 | 36.91 ± 16.46 | – | – |
| CC(C)(c1ccc(OC[C@H](O)CO)cc1)c1ccc(OC[C@@H](O)CCl)cc1 [(Aa)] | 66.44 ± 12.47 | 66.44 ± 31.59 | 45.16 ± 29.13 | – | – |
| CC(C)(c1ccc(OC[C@@H](O)CO)cc1)c1ccc(OC[C@@H](O)CCl)cc1 [(Ad)] | 54.72 ± 7.83 | 54.73 ± 12.99 | 33.55 ± 11.31 | – | – |
| CC(C)(c1ccc(OCC(O)CF)cc1)c1ccc(OCC(O)CCl)cc1 (stereo not shown) [Compound 1, 1-chloro-3-(4-(2-(4-(3-fluoro-2-hydroxypropoxy)phenyl)propan-2-yl)phenoxy)propan-2-ol] | – | – | – | increased loss in tumor volume | inhibition of androgen receptor N-terminal domain transactivation (in words) [5]: more potent inhibition activity; inhibition of androgen-dependent proliferation of LNCaP cells (in words) (LNCaP cells): inhibits androgen-dependent proliferation of LNCaP cells at lower concentrations |
| CC(C)(c1ccc(OC[C@H](O)CF)cc1)c1ccc(OC[C@H](O)CCl)cc1 [Compound 1c, (S)-1-chloro-3-(4-(2-(4-((S)-3-fluoro-2-hydroxypropoxy)phenyl)propan-2-yl)phenoxy)propan-2-ol] | – | – | – | increased loss in tumor volume | – |
| CC(C)(c1ccc(OC[C@@H](O)CF)cc1)c1ccc(OC[C@@H](O)CCl)cc1 [Compound 1d, (R)-1-chloro-3-(4-(2-(4-((R)-3-fluoro-2-hydroxypropoxy)phenyl)propan-2-yl)phenoxy)propan-2-ol] | – | – | – | increased loss in tumor volume | – |

The next lines start with results.

| PB-Luc activity (%) mean ± SD (AR [1]) [%] | ARR3-Luc activity (%) mean ± SD (AR [2]) [%] | PSA-Luc activity (%) mean ± SD (AR [3]) [%] | Structure (SMILES) | change in tumor volume at day 14 (in words) (VCaP xenografts) | also measured |
| --- | --- | --- | --- | --- | --- |
| 43.70 ± 9.98 | 43.68 ± 15.16 | 24.49 ± 13.20 | CC(C)(c1ccc(OC[C@H](O)CCl)cc1)c1ccc(OC[C@@H](O)CO)cc1 [(Ab)] | – | animals in which tumor regression was attained (LNCaP CRPC xenograft; FIG. 8): 60%; CRPC tumor growth / antitumor activity (in words) (LNCaP CRPC xenograft): better antitumor activity; loss of body weight (in words) [4]: some losses |
| 41.58 ± 6.63 | 41.58 ± 14.82 | 24.33 ± 13.63 | CC(C)(c1ccc(OC[C@H](O)CO)cc1)c1ccc(OC[C@H](O)CCl)cc1 [(Ac)] | – | inhibition of transcriptional activity of AR (in words) (AR [3]; PSA-, probasin (PB)- and ARR3-luciferase reporters, Table 3): best activity of all the comparative compounds; extent of tumor regression (in words) (LNCaP CRPC xenograft; (Ac) versus (Ab), FIG. 8): greater regression; animals in which tumor regression was attained (LNCaP CRPC xenograft; FIG. 8): 60%; CRPC tumor growth / antitumor activity (in words) (LNCaP CRPC xenograft): better antitumor activity; also recorded: most potent and least toxic of the comparative compounds; loss of body weight (in words) [4]: No loss of body weight |
